Assays:
HL-60 (TB) = test: SRB anticancer assay, leukemia; format: cell-based, human; parameters: Log10GI50: unit not given here; conditions: for GI50: Homo sapiens, HL-60, 48 h
K-562 = test: SRB anticancer assay, leukemia; format: cell-based, human; parameters: Log10GI50: unit not given here; conditions: for GI50: Homo sapiens, K562, K-562, 48 h
SR = test: SRB anticancer assay, leukemia; format: cell-based, human; conditions: Homo sapiens, 48 h
NCI-H23 = test: SRB anticancer assay, non-small lung; format: cell-based, human; conditions: for GI50: Homo sapiens, NCI-H23, 48 h
NCI-H322M = test: SRB anticancer assay, non-small lung; format: cell-based, human; conditions: Homo sapiens, 48 h
NCI-H460 = test: SRB anticancer assay, non-small lung; format: cell-based, human; conditions: Homo sapiens, NCI-H460, 48 h
HCT-116 = test: SRB anticancer assay, colon; format: cell-based, human; conditions: Homo sapiens, HCT-116, 48 h
SF-268 = test: SRB anticancer assay, CNS; format: cell-based, human; parameters: Log10GI50: unit not given here; conditions: for GI50: Homo sapiens, SF-268, 48 h
SF-295 = test: SRB anticancer assay, CNS; format: cell-based, human; parameters: Log10GI50: unit not given here; conditions: for GI50: Homo sapiens, SF-295, 48 h
SNB-75 = test: SRB anticancer assay, CNS; format: cell-based, human; parameters: Log10GI50: unit not given here; conditions: for GI50: Homo sapiens, SNB-75, 48 h
IGROV1 = test: SRB anticancer assay, ovarian; format: cell-based, human; conditions: Homo sapiens, IGROV-1; IGROV1, 48 h
OVCAR-3 = test: SRB anticancer assay, ovarian; format: cell-based, human; parameters: Log10GI50: unit not given here; conditions: for GI50: Homo sapiens, OVCAR-3, 48 h
OVCAR-5 = test: SRB anticancer assay, ovarian; format: cell-based, human; conditions: Homo sapiens, OVCAR-5, 48 h
786-0 = test: SRB anticancer assay, renal; format: cell-based, human; conditions: for GI50: Homo sapiens, 786-0, 48 h
A498 = test: SRB anticancer assay, renal; format: cell-based, human; parameters: Log10GI50: unit not given here; conditions: for GI50: Homo sapiens, A498, 48 h
SN12C = test: SRB anticancer assay, renal; format: cell-based, human; parameters: Log10GI50: unit not given here; conditions: for GI50: Homo sapiens, 48 h
TK-10 = test: SRB anticancer assay, renal; format: cell-based, human; conditions: Homo sapiens, TK-10, 48 h
UO-31 = test: SRB anticancer assay, renal; format: cell-based, human; parameters: Log10GI50: unit not given here; conditions: for GI50: Homo sapiens, UO-31, 48 h
RXF 393 = test: SRB anticancer assay, renal; format: cell-based, human; parameters: Log10GI50: unit not given here; conditions: for GI50: Homo sapiens, RXF 393, 48 h
PC-3 = test: SRB anticancer assay, prostate; format: cell-based, human; parameters: Log10GI50: unit not given here; conditions: for GI50: Homo sapiens, PC-3, 48 h
MCF7 = test: SRB anticancer assay, breast; format: cell-based, human; conditions: Homo sapiens, MCF7, 48 h
HS 578T = test: SRB anticancer assay, breast; format: cell-based, human; parameters: Log10GI50: unit not given here; conditions: for GI50: Homo sapiens, 48 h
BT-549 = test: SRB anticancer assay, breast; format: cell-based, human; parameters: Log10GI50: unit not given here; conditions: for GI50: Homo sapiens, BT-549, 48 h
T-47D = test: SRB anticancer assay, breast; format: cell-based; conditions: Homo sapiens, T47D, 48 h
LOX IMVI = test: SRB anticancer assay, melanoma; format: cell-based, human; parameters: Log10GI50: unit not given here; conditions: for GI50: Homo sapiens, 48 h
MALME-3M = test: SRB anticancer assay, melanoma; format: cell-based, human; parameters: Log10GI50: unit not given here; conditions: for GI50: Homo sapiens, Malme-3M, 48 h
SK-MEL-2 = test: SRB anticancer assay, melanoma; format: cell-based, human; conditions: for GI50: Homo sapiens, SK-MEL-2, 48 h
SK-MEL-28 = test: SRB anticancer assay, melanoma; format: cell-based, human; parameters: Log10GI50: unit not given here; conditions: for GI50: Homo sapiens, SK-MEL-28, 48 h
SK-MEL-5 = test: SRB anticancer assay, melanoma; format: cell-based, human; conditions: Homo sapiens, SK-MEL-5, 48 h
UACC-62 = test: SRB anticancer assay, melanoma; format: cell-based, human; conditions: for GI50: Homo sapiens, UACC-62, 48 h
K562 (Leukemia) cells = test: Cell cycle distribution by flow cytometry; format: cell-based
Protocol: (§1) In order to investigate the mechanism underlying the anti-proliferative effect of the compounds the cell cycle distribution was analyzed in K562 (Leukemia) and MCF-7 (Breast carcinoma) cell lines by flow cytometry. Compounds CA-4, 21a, 21d, 4c, 6d, 6e, 6f, 7d, 7h and 7j have shown 1.72%, 14%, 12%, 14%, 12%, 14%, 14%, 16%, 16% &12% in K562 cells and 49.63%, 21%, 20%, 18%, 21%, 21%, 21%, 24%, 23% and 23% in MCF-7 cell line respectively. […] Thus compound 7d was considered for further studies (FIG. 1).

[1] = test system: MCF-7 (Breast carcinoma) cells; test: Cell cycle distribution by flow cytometry (FACS); format: cell-based; conditions: MCF-7 cells, 2 μM, 24h
Protocol: FIG. 1 represents FACS analysis of cell cycle distribution of MCF-7 cells after treatment with compounds CA-4, 21a, 21d, 4c, 6d, 6e, 6f, 7d, 7h and 7j at 2 μM concentration for 24h and control cells are the cells treated with DMSO (0.25%).
as §1

COc1ccc(-c2cncn2-c2ccc(-c3nc4cc(OC)c(OC)c(OC)c4s3)cc2)cc1N [Compound 7j, 2-Methoxy-5-(1-(4-(5,6,7-trimethoxybenzo[d]thiazol-2-yl)phenyl)-1H-imidazol-5-yl)benzeneamine]
Log10GI50 (HL-60 (TB); HL-60(TB), present compounds): −5.66
GI50 (HL-60 (TB)): 2.2 µM
GI50 (K-562): 3.38 µM
Log10GI50 (K-562; K-562, present compounds): −5.47
GI50 (SR): 3.43 µM
GI50 (NCI-H23): 4.76 µM
Log10GI50 (NCI-H23; NCI-H23, present compounds): −5.32 log10(M)
GI50 (NCI-H322M): 25.7 µM
GI50 (NCI-H460): 4.69 µM
GI50 (HCT-116): 3.78 µM
GI50 (SF-268): 47 µM
Log10GI50 (SF-268; SF-268, present compounds): −4.33
GI50 (SF-295): 4.44 µM
Log10GI50 (SF-295; SF-295, present compounds): −5.35
GI50 (SNB-75): 52.3 µM
Log10GI50 (SNB-75; SNB-75, present compounds): −4.28
GI50 (IGROV1): 4.9 µM
GI50 (OVCAR-3): 5.18 µM
Log10GI50 (OVCAR-3; OVCAR-3, present compounds): −5.29
GI50 (OVCAR-5): > 100 µM
Log10GI50 (786-0; 786-0, present compounds): −5.24 log10 M
GI50 (786-0): 5.73 µM
Log10GI50 (A498; A498, present compounds): −5.32
GI50 (A498): 4.83 µM
GI50 (SN12C): 9.44 µM
Log10GI50 (SN12C; present compounds): −5.03
GI50 (TK-10): 4.16 µM
GI50 (UO-31): 1.99 µM
Log10GI50 (UO-31; UO-31, present compounds): −5.70
GI50 (RXF 393): 5.98 µM
Log10GI50 (RXF 393; RXF 393, present compounds): −5.22
GI50 (PC-3): 2.59 µM
Log10GI50 (PC-3; PC-3, present compounds): −5.59
GI50 (MCF7): 4.07 µM
GI50 (HS 578T): 6.21 µM
Log10GI50 (HS 578T; present compounds): −4.55
Log10GI50 (BT-549; BT-549, present compounds): −5.21
GI50 (BT-549): 3.02 µM
GI50 (T-47D): 8.6 µM
GI50 (LOX IMVI): 4.75 µM
Log10GI50 (LOX IMVI; present compounds): −5.32
GI50 (MALME-3M): 2.48 µM
Log10GI50 (MALME-3M; MALME-3M, present compounds): −5.61
GI50 (SK-MEL-2): 6.04 µM
Log10GI50 (SK-MEL-2; SK-MEL-2, present compounds): −5.22 M
GI50 (SK-MEL-28): 13.7 µM
Log10GI50 (SK-MEL-28; SK-MEL-28, present compounds): −4.86
GI50 (SK-MEL-5): 1.73 µM
GI50 (UACC-62): > 100 µM
Log10GI50 (UACC-62; UACC-62, present compounds): −5.04 log10 M
cells in G2/M phase (K562 (Leukemia) cells): 12%
cells in G2/M phase [1]: 23%

COc1cc(OC)c2sc(-c3ccc(-n4cncc4-c4ccc(OC)c(OC)c4)cc3)nc2c1 [Compound 6e, 2-(4-(5-(3,4-Dimethoxyphenyl)-1H-imidazol-1-yl)phenyl)-5,7-dimethoxybenzo[d]thiazole]
GI50 (HL-60 (TB)): 3.09 µM
GI50 (K-562): 5.88 µM
GI50 (SR): 3.03 µM
GI50 (NCI-H23): > 100 µM
GI50 (NCI-H322M): > 100 µM
GI50 (NCI-H460): 6.06 µM
GI50 (HCT-116): 5.48 µM
GI50 (SF-268): 9.96 µM
GI50 (SF-295): 7 µM
GI50 (SNB-75): 7.21 µM
GI50 (IGROV1): 56.1 µM
GI50 (OVCAR-3): 3.85 µM
GI50 (OVCAR-5): > 100 µM
GI50 (786-0): > 100 µM
GI50 (A498): 2.15 µM
GI50 (SN12C): > 100 µM
GI50 (TK-10): > 100 µM
GI50 (UO-31): 31.7 µM
GI50 (PC-3): 3.66 µM
GI50 (MCF7): 5.36 µM
GI50 (HS 578T): 9.12 µM
GI50 (BT-549): 3.78 µM
GI50 (T-47D): 4.15 µM
GI50 (LOX IMVI): > 100 µM
GI50 (MALME-3M): 59.8 µM
GI50 (SK-MEL-2): 41.4 µM
GI50 (SK-MEL-28): > 100 µM
GI50 (SK-MEL-5): 3.61 µM
GI50 (UACC-62): 8.14 µM
cells in G2/M phase (K562 (Leukemia) cells): 14%
cells in G2/M phase [1]: 21%

COc1cc(OC)c2sc(-c3ccc(-n4cncc4-c4cc(OC)c(OC)c(OC)c4)cc3)nc2c1 [Compound 6f, 5,7-Dimethoxy-2-(4-(5-(3,4,5-trimethoxyphenyl)-1H-imidazol-1-yl)phenyl)benzo[d]thiazole]
GI50 (HL-60 (TB)): 3.3 µM
GI50 (K-562): 3.83 µM
GI50 (SR): 3.24 µM
GI50 (NCI-H23): 6.15 µM
GI50 (NCI-H322M): > 100 µM
GI50 (NCI-H460): 4.67 µM
GI50 (HCT-116): 3.92 µM
GI50 (SF-295): 4.42 µM
GI50 (SNB-75): 6.47 µM
GI50 (IGROV1): 5.87 µM
GI50 (OVCAR-3): 3.26 µM
GI50 (OVCAR-5): > 100 µM
GI50 (786-0): 7.38 µM
GI50 (A498): 1.83 µM
GI50 (SN12C): > 100 µM
GI50 (TK-10): 9.4 µM
GI50 (UO-31): 2.27 µM
GI50 (RXF 393): 2.8 µM
GI50 (PC-3): 2.54 µM
GI50 (MCF7): 3.88 µM
GI50 (HS 578T): 5.23 µM
GI50 (BT-549): 3.35 µM
GI50 (T-47D): 3.27 µM
GI50 (LOX IMVI): 5.4 µM
GI50 (MALME-3M): 3.73 µM
GI50 (SK-MEL-2): 6.09 µM
GI50 (SK-MEL-5): 2.46 µM
GI50 (UACC-62): 4.14 µM
cells in G2/M phase (K562 (Leukemia) cells): 14%
cells in G2/M phase [1]: 21%

Source: patent publication US9187467B2, “2-phenyl benzothiazole linked imidazole compounds as potential anticancer agents and process for the preparation thereof” (Council of Scientific and Industrial Research, priority 2012, dated 2015)
